Assay results: patent EP2439195B1, “NAPHTHALENE CARBOXAMIDE DERIVATIVES AS INHIBITORS OF PROTEIN KINASE AND HISTONE DEACETYLASE, PREPARATION METHODS AND USES THEREOF” (Shenzhen Chipscreen Biosciences, Ltd., priority 2009, dated 2010)
pIC50: −log10 of the molar value. Like-named read-outs stand apart in the source and are kept apart here.

What was measured:
Class I HDAC = test: HDAC subtype selectivity reporter gene assay (P21 reporter, HeLa cells); assay type: cell-based; details: Homo sapiens, read-out: Class I HDAC (P21 reporter assay) Fold Induction at 10µM
Protocol: Different HDAC subtypes can bind with different transcriptional factors and involve in expression regulation of various genes. Suitable regulation elements for transcriptional factors are selected to construct reporter genes, which can be used to evaluate the selective inhibition of inhibors on HDAC subtypes. Briefly, HeLa cells were seeded in 96-well plates the day before transfection to give a confluence of 50-80% when transfection. Cells were transfected with one of reporter gene plasmid containing a p21-promoter sequence or response element upstream of a luciferase gene construct using FuGene6 transfection reagent according to the manufacturer's instruction (Roche). For normalizing the transfection efficiency, a GFP expression plasmid was cotransfected. After 24 hours compounds or the vehicle control (DMSO) were added. 24 hours later the cells were harvested and lysed, and the amount of the luciferase was evaluated using luciferase assay kits (Promega) according to the manufacturer's instructions.

A-498 = test: Tumor cell proliferation (MTS), A-498; assay type: cell-based; details: Homo sapiens, A498; A-498, 72 hours; read-out: Gl50 µM in A-498
Protocol: (§1) Tumor cells were trypsinized and plated into 96-well plates at 3,000 per well and incubated in complete medium with 10% FBS for 24 hours. Compounds to be tested and vehicle control were added, and the final concentration of compound is in the range of 100 nmol/L to 100 µmol/L. The compounds were incubated for 72 hours in complete medium. The MTS reagent (Promega) was added according to the instruction, incubated for 2 hours at 37°C in CO2 incubator. Then absorbance at 490nm is read using an ELISA plate reader.

A549 = test: Tumor cell proliferation (MTS), A549; assay type: cell-based; details: Homo sapiens; A549, 72 hours; read-out: Gl50 µM in A549
Protocol: as §1

Bel-7402 = test: Tumor cell proliferation (MTS), Bel-7402; assay type: cell-based; details: Homo sapiens; Bel-7402, 72 hours; read-out: Gl50 µM in Bel-7402
Protocol: as §1

HCT-8 = test: Tumor cell proliferation (MTS), HCT-8; assay type: cell-based; details: Homo sapiens; HCT-8, 72 hours; read-out: Gl50 µM in HCT-8
Protocol: as §1

MCF-7 = test: Tumor cell proliferation (MTS), MCF-7; assay type: cell-based; details: Homo sapiens, MCF7; MCF-7, 72 hours; read-out: Gl50 µM in MCF-7
Protocol: as §1

human PDGFRβ = target: T1, human PDGFRβ (Homo sapiens, UniProt P09619); test: PDGF dependent cell proliferation (MTS); assay type: cell-based
T1 construct: expressed in transfected cells
T1 sequence (P09619 33-1106): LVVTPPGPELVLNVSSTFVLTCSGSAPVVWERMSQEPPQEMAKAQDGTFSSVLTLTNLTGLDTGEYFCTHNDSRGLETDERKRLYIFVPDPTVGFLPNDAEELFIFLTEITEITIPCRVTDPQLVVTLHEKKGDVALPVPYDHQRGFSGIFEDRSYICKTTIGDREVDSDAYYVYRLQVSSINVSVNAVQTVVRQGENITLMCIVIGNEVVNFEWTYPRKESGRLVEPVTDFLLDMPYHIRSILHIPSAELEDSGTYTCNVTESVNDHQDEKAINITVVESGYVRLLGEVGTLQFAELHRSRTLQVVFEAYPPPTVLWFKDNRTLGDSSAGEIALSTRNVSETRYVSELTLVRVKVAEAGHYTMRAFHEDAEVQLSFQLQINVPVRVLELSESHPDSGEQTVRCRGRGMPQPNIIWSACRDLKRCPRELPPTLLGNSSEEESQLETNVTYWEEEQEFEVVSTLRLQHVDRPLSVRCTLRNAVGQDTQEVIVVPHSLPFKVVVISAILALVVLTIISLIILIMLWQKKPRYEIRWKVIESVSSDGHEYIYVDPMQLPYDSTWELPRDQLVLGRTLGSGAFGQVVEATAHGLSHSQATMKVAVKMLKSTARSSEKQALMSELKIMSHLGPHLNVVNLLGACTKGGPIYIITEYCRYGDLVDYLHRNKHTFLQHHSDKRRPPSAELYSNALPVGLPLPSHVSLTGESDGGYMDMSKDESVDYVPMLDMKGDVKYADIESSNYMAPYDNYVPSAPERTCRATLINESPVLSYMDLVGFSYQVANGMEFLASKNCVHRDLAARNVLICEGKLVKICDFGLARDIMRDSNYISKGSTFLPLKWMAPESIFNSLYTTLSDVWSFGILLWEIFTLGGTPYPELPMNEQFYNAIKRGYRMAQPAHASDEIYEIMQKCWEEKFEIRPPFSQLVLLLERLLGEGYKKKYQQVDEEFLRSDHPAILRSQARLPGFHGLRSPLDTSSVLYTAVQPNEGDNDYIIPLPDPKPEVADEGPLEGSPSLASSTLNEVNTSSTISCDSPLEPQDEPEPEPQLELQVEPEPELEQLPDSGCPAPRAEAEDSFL
Protocol: NIH-3T3 mouse fibroblasts cell line engineered to stably express human PDGFRβ was constructed and used to evaluate PDGF dependent cell proliferation. PDGFRβ NIH-3T3 cells were plated into 96-well plates at 5,000 per well and incubated overnight with serum-free medium after 24 hours. Compounds to be tested and PDGF BB (50ng/ml) were added and incubated for 72 hours in serum-free medium. The effects on proliferation were determined by MTS method (Promega) according to the instruction. Incubation was performed for 2 hours at 37°C in CO2 incubator, and absorbance at 490nm was measured using an ELISA plate reader.

HUVEC cells = test: VEGF dependent cell proliferation (MTS); assay type: cell-based; details: Homo sapiens, VEGF 165 (50ng/ml), 72 hours, serum-free medium, read-out: Gl50 nM (VEGF ligand-dependent cell proliferation)
Protocol: HUVEC cells were plated into 96-well plates at 6,000 per well and after 24 hours incubated with serum-free medium for 2 hours. Compounds to be tested and VEGF 165 (50ng/ml) were added and incubated for 72 hours in serum-free medium. The effects on cell proliferation were determined by MTS method (Promega) according to the instruction. Incubation was performed for 2 hours at 37°C in CO2 incubator, and absorbance at 490nm was determined using an ELISA plate reader.

total HDAC enzyme = test: In vitro total HDAC enzyme activity (HDAC Fluorimetric Assay/Drug Discovery Kit, HeLa cell nuclear extract); assay type: biochemical
Protocol: The in vitro total HDAC enzyme activity was determined by HDAC Fluorimetric Assay/Drug Discovery Kit (BIOMOL) according to manufacture's instruction. The principle of the experiment is as follows: under the action of histone deacetylase (in the experiment, HeLa cell nuclear extract, which was rich in a variety of subtypes of HDAC, was used), an acetyl group is removed from a special substrate Fluor de Lys, thus the free amino is exposed. Upon Developer is added, the substrate will produce fluorescence. For the fluorescence, excitation wavelength is 360nm, and emission wavelength is 460nm. More fully the substrate deacetylated, more higher the fluorescence induced. In the absence of inhibitors, the fluorescence value is taken as the control; when inhibitor is existed, fluorescence value induced will be reduced, while in the case no enzyme is existed (corresponding to the completely inhibition of enzyme activity) the fluorescence value is blank. Generally, after suppression the fluorescence values will be between the control and blank. When analysis is made, blank will be used as 0, and the control will be used as 1. Smaller value means higher inhibitory activity. 1. Add Assay buffer, diluted trichostatin A and test inhibitor to appropriate wells of the microtiter plate. Following table lists the amounts used for each regent of various assay types.
2. Add diluted HeLa nucleoprotein extract to all wells except those that are marked as "blank". 3. Allow diluted Fluor de Lys™ Substrate and the samples in the microtiter plate to equilibrate to 25°C. 4. Initiate HDAC reactions by adding diluted substrate (25 µl) to each well and mixing thoroughly. 5. Allow reactions to proceed for 30 minutes and then stop them by addition of Fluor de Lys™ Developer (50 µl). Incubate plate at room temperature (25°C) for 10-15 min. 6. Read fluorescence of samples on a microtiter-plate reading fluorimeter at a excitation wavelength of 369 nm and a emitted wavelength of 451 nm.

[1] = PDGFRβ NIH-3T3 cells, PDGF BB (50ng/ml), 72 hours, serum-free medium; read-out: Gl50 nM (PDGF ligand-dependent cell proliferation)

SMILES | fold induction at 10 µM (Class I HDAC; 10µM, HeLa cells, 24 hours) | pIC50 (A-498) | pIC50 (A549) | pIC50 (Bel-7402) | pIC50 (HCT-8) | pIC50 (MCF-7) | pIC50 (human PDGFRβ; [1]) | pIC50 (HUVEC cells) | % inhibition of total HDAC enzyme activity at 30µM (total HDAC enzyme) | pIC50 (human PDGFRβ; read-out: Gl50 nM (PDGF ligand-dependent cell proliferation); PDGFRβ NIH-3T3 cells, PDGF BB (50ng/ml), 72 hours, serum-free medium) | fold induction at 10 µM (Class I HDAC; HeLa, 24 h)
Nc1cc(F)ccc1NC(=O)c1ccc(CNC(=O)/C=C/c2cccnc2)cc1 [CS055, Chidamide, reference compound] | 33 | 4.92 | 4.95 | 4.72 | 5.11 | 5.41 |  |  |  |  | 
COc1cc2ncnc(Oc3ccc4c(C(=O)Nc5ccccc5N)cccc4c3)c2cc1OC [Compound 16, N-(2-aminophenyl)-6-(6,7-dimethoxyquinazolin-4-yloxy)-1-naphthamide] | 1.3 | 4.52 | 4.52 | 4.52 | 4.91 | 4.52 | 7.32 | 8.52 | 8.6% |  | 
COc1cc2ncnc(Oc3ccc4c(C(=O)Nc5ccc(F)cc5N)cccc4c3)c2cc1OC [Compound 17, N-(2-amino-4-fluorophenyl)-6-(6,7-dimethoxyquinazolin-4-yloxy)-1-naphthamide] | 1.1 | 4.52 | 4.52 | 4.52 | 5.52 | 4.52 | 7.40 | 8.52 | 22.5% |  | 
COc1cc2ncnc(Oc3ccc4c(C(=O)Nc5ccc(C)cc5N)cccc4c3)c2cc1OC [Compound 18, N-(2-amino-4-methylphenyl)-6-(6,7-dimethoxyquinazolin-4-yloxy)-1-naphthamide] | 1.1 |  |  |  |  |  | 7.82 | 8.15 | 17.1% |  | 
COc1ccc(NC(=O)c2cccc3cc(Oc4ncnc5cc(OC)c(OC)cc45)ccc23)c(N)c1 [Compound 19, N-(2-amino-4-methoxyphenyl)-6-(6,7-dimethoxyquinazolin-4-yloxy)-1-naphthamide] | 1.4 |  |  |  |  |  | 7.96 | 7.64 | 21.9% |  | 
COc1cc2ncnc(Oc3ccc4c(C(=O)Nc5ccc(Cl)cc5N)cccc4c3)c2cc1OC [Compound 20, N-(2-amino-4-chlorophenyl)-6-(6,7-dimethoxyquinazolin-4-yloxy)-1-naphthamide] | 1.5 |  |  |  |  |  | 7.64 | 8.22 | 21.9% |  | 
COc1cc2ncnc(Oc3ccc4c(C(=O)Nc5ccc(Br)cc5N)cccc4c3)c2cc1OC [Compound 21, N-(2-amino-4-bromophenyl)-6-(6,7-dimethoxyquinazolin-4-yloxy)-1-naphthamide] | 1.1 |  |  |  |  |  | 7.72 | 8.30 | 18.6% |  | 
COc1cc2ncnc(Oc3ccc4c(C(=O)Nc5ccc(C(F)(F)F)cc5N)cccc4c3)c2cc1OC [Compound 22, N-(2-amino-4-trifluoromethylphenyl)-6-(6,7-dimethoxyquinazolin-4-yloxy)-1-naphthamide] | 1.1 |  |  |  |  |  | 6.43 | 8.52 | 17% |  | 
COc1cc2ncnc(Oc3ccc4c(C(=O)NCc5ccc(C(=O)Nc6ccccc6N)cc5)cccc4c3)c2cc1OC [Compound 23, N-(4-((2-aminophenyl)carbamoyl)benzyl)-6-(6,7-dimethoxyquinazolin-4-yloxy)-1-naphthamide] | 11.3 | 4.83 | 4.52 | 4.52 | 5.24 | 5.37 | 6.83 | 7.74 | 49.4% |  | 
COc1cc2ncnc(Oc3ccc4c(C(=O)NCc5ccc(C(=O)Nc6ccccc6N)cn5)cccc4c3)c2cc1OC [Compound 25] |  | 4.83 | 4.52 | 4.52 | 5.31 | 5.21 |  | 7.89 | 47.9% | 7.16 | 12.1
Nc1ccccc1NC(=O)c1cccc2cc(Oc3ccnc4ccccc34)ccc12 [Compound 39, N-(2-aminophenyl)-6-(quinolin-4-yloxy)-1-naphthamide] | 1.2 |  |  |  |  |  | 7.49 | 6.97 | 15.9% |  | 
Cc1cccc2c(Oc3ccc4c(C(=O)Nc5ccccc5N)cccc4c3)ccnc12 [Compound 40, N-(2-aminophenyl)-6-(8-methylquinolin-4-yloxy)-1-naphthamide] | 1.3 |  |  |  |  |  |  | 6.00 | 22.2% |  | 
Nc1ccccc1NC(=O)c1cccc2cc(Oc3ccnc4cc(Cl)ccc34)ccc12 [Compound 41, N-(2-aminophenyl)-6-(7-chloroquinolin-4-yloxy)-1-naphthamide] | 1.1 |  |  |  |  |  | 6.32 | 6.98 | 19.3% |  | 
Nc1ccccc1NC(=O)c1cccc2cc(Oc3ccnc4c(C(F)(F)F)cccc34)ccc12 [Compound 42, N-(2-aminophenyl)-6-(8-trifluoromethylquinolin-4-yloxy)-1-naphthamide] | 1.3 |  |  |  |  |  | 7.32 | 6.00 | 6.2% |  | 
Nc1ccccc1NC(=O)c1ccc(CNC(=O)c2cccc3cc(Oc4ccnc5cc(Cl)ccc45)ccc23)cc1 [Compound 43, N-(4-((2-aminophenyl)carbamoyl)benzyl)-6-(7-chloroquinolin-4-yloxy)-1-naphthamide] | 6.1 |  |  |  |  |  |  | 6.54 | 38.7% |  | 
Nc1ccccc1NC(=O)c1ccc(CNC(=O)c2cccc3cc(Oc4ccnc5c(C(F)(F)F)cccc45)ccc23)cc1 [Compound 44] | 3.2 |  |  |  |  |  |  | 6.00 | 35.1% |  | 
